From EP0256909B1, “N,N-bis-(4-fluorophenyl) carbamoyl acetohydroxamic acid and pharmaceutical composition containing it” (priority 1986, dated 1988)
Entries after “also recorded” stand apart in the source; their conditions may differ.

Tests used:
[1] = Solubility of the powder in solvents; assay type: physicochemical
souris [2] = assay: Global behaviour and reactivities, mouse; assay type: in vivo
Protocol: (§1) Des lots de 3 animaux sont observés avant, puis 15 min, 30 min, 1 h, 2 h, 3 h et 24 h après l'administration de CRL 41131.

rat [3] = assay: Global behaviour and reactivities, rat; assay type: in vivo
Protocol: as §1

rat [4] = assay: Search for stereotyped movements; assay type: in vivo; settings: for mouvements stéréotypés (cotes): 22 h 30 min after administration, scored 0 to 3
Protocol: (§2) Le CRL 41131, en suspension dans une solution de gomme arabique à 5%, a été administré par voie intrapéritonéale sous un volume de 20 ml/kg chez la souris (mâle, NMRI, Evic Ceba) et de 5 ml/kg chez le rat (mâle, CD1, Sprague Dawley, Charles River).

souris [5] = assay: Interaction with apomorphine, mouse; assay type: in vivo; settings: compound i.p. 30 min before s.c. apomorphine 1 or 16 mg/kg
Protocol: as §2
Des lots de 6 souris reçoivent le CRL 41 131 30 min avant l'injection sous-cutanée d'apomorphine, à la dose de 1 ou 16 mg/kg. • a) Apomorphine 1 mg/kg • b) Apomorphine 16 ma/ka

rat [6] = assay: Interaction with apomorphine, rat; assay type: in vivo; settings: 64 and above all 256 mg/kg i.p., 30 min before s.c. apomorphine 0,5 mg/kg
Protocol: as §2
Le CRL 41131 est administré à des lots de 6 rats 30 min avant l'injection sous-cutanée de 0,5 mg/kg d'apomorphine.

souris [7] = assay: Interaction with reserpine; assay type: in vivo; settings: 128 et 512 mg/kg i.p., mouse, 4 h after reserpine 2,5 mg/kg i.p.
Protocol: Quatre heures après l'injection intrapéritonéale de 2,5 mg/kg de réserpine, des lots de 6 souris reçoivent le CRL 41131.

souris [8] = assay: Interaction with oxotremorine; assay type: in vivo; settings: mouse, oxotremorine 0,5 mg/kg i.p.
Protocol: Le CRL 41131 est administré à des lots de 6 souris 30 min avant l'injection intrapéritonéale de 0,5 mg/kg d'oxotrémorine.

souris [9] = assay: Four plates test; assay type: in vivo; settings: mouse, 30 min after i.p. administration
Protocol: as §2
(§3) Le test est pratiqué sur des lots de 10 souris, 30 min après l'administration de CRL 41131.

souris [10] = settings: in vivo, ip
Protocol: as §2, §3

souris [11] = assay: Spontaneous motility (actimeter); assay type: in vivo
Protocol: Après avoir reçu le CRL 41131, les souris (6 par dose, 12 témoins) sont placées en actimètre où leur motilité est enregistrée pendant 30 min.

souris [12] = assay: Intergroup aggressiveness; assay type: in vivo
Protocol: Après avoir séjourné pendant 3 semaines dans chacune des moitiés d'une cage séparées par une cloison opaque, des groupes de 3 souris reçoivent le CRL 41131. Trente minutes plus tard, les deux groupes d'une même cage sont réunis par retrait de la cloison et on note le nombre de combats qui surviennent en 10 min.

souris [13] = assay: Motility reduced by habituation to the enclosure; assay type: in vivo; settings: 32, 128 et 512 mg/kg i.p.
Protocol: Après 18 h de séjour dans les actimètres, les souris (6 par dose, 12 témoins) reçoivent le CRL 41131. Elles sont aussitôt replacées dans leurs enceintes respectives et, 30 min plus tard, on enregistre leur motilité pendant 30 min.

souris [14] = assay: Motility reduced by hypoxic aggression; assay type: in vivo; settings: 8, 32, above all 128 et 512 mg/kg i.p., after acute hypobaric anoxia
Protocol: Trente minutes après avoir reçu le CRL 41131, les souris (10 par dose, 20 témoins) sont soumises à une anoxie hypobare aiguë (dépression de 600 mmHg en 90 s, détente de 45 s), puis elles sont placées en actimètre où leur motilité est enregistrée pendant 10 min.

souris [15] = assay: Asphyxic anoxia (gallamine triethiodide); assay type: in vivo; settings: i.p. 30 min before gallamine triethiodide 32 mg/kg i.p.
Protocol: Des lots de 10 souris reçoivent le CRL 41131 30 min avant l'administration intrapéritonéale de 32 mg/kg de triiodoéthylate de gallamine.

souris [16] = assay: Interaction with barbital; assay type: in vivo; settings: 128 et 512 mg/kg, barbital 220 mg/kg i.p.
Protocol: Trente minutes après l'administration de CRL 41131, des lots de 10 souris reçoivent une injection intrapéritonéale de barbital (220 mg/kg).

souris [17] = assay: Behavioural despair (forced immersion); assay type: in vivo; settings: 32, 128, 512 mg/kg i.p., 2nd to 6th minute
From the text: Trente min après avoir reçu le CRL 41131, des lots de 6 souris (mâles, CD1, Charles River) sont placés dans un bécher rempli d'eau sur une hauteur de 6 cm. On note la durée totale d'immobilité entre la deuxième et la sixième minute suivant l'immersion.

homme = assay: Use as stimulant antidepressant in man; assay type: in vivo; settings: 2 to 3 tablets of 150 mg per day, oral route

O=C(CC(=O)N(c1ccc(F)cc1)c1ccc(F)cc1)NO [CRL 41131, acide N,N-bis-(4-fluorophényl) carbamoylacétohydroxamique]
solubilité dans les alcools, l'acétone, l'acétate d'éthyle ([1]; alcohols, acetone, ethyl acetate): soluble
solubilité dans l'éther ([1]; ether): peu soluble
solubilité dans l'éther isopropylique ([1]; isopropyl ether): insoluble
solubilité dans l'eau ([1]; water): insoluble
Comportement global: excitation (souris [2]; 128 mg/kg i.p.): excitation (1/3) pendant 1 h
Comportement global: excitation (souris [2]; 512 mg/kg i.p.): excitation (1/3 pendant 1 h, 2/3 entre 2 et 3 h, et 3/3 à 24 h)
Comportement global et réactivités à 24 h (souris [2]; 512 mg/kg i.p., 24 h): mouvements d'apparence stéréotypée, augmentation de la réaction de peur et de la réactivité au toucher à 24 h
Comportement, réactivités, variations du diamètre pupillaire et de la température (souris [2]; 8 et 32 mg/kg i.p.): comparables à ceux du lot témoin
comportement: excitation, réaction de peur (rat [3]; 256 mg/kg i.p.): excitation et augmentation de la réaction de peur (entre 2 h et 24 h)
stéréotypies, réactivité au toucher (rat [3]; 256 mg/kg i.p., 24 h): stéréotypies, augmentation de la réactivité au toucher en 24 h
comportement et réactivités (rat [3]; 4, 16 et 64 mg/kg i.p.): pas de modification nette du comportement et des réactivités
mouvements stéréotypés (cotes) (rat [4]; 64 mg/kg i.p.): 1
mouvements stéréotypés (cotes) (rat [4]; 128 mg/kg i.p.): 2
mouvements stéréotypés (cotes) (rat [4]; 256 mg/kg i.p.): 3
mouvements stéréotypés persistant pendant (rat [4]; 128 et 256 mg/kg i.p.): > 30 h
mouvements stéréotypés (rat [4]; from the lowest dose used, 64 mg/kg i.p.): provoque l'apparition de mouvements stéréotypés
action hypothermisante induite par l'apomorphine (souris [5]): ne s'oppose pas
comportements de verticalisation et de stéréotypies (souris [5]): ne sont pas modifiés
stéréotypies induites par l'apomorphine (rat [6]): potentialisation
hypothermie réserpinique (souris [7]): s'oppose tardivement (24 h)
ptôsis réserpinique (souris [7]): s'oppose tardivement (24 h)
action hypothermisante de l'oxotrémorine (température) (souris [8]): n'a pas d'effet; also recorded: ne modifie pas
intensité des tremblements provoqués par l'oxotrémorine (souris [8]): n'a pas d'effet; also recorded: ne modifie pas
signes de stimulation cholinergique périphérique dus à l'oxotrémorine (souris [8]): ne modifie pas
nombre de passages punis (souris [9]): n'entraîne pas d'augmentation nette du nombre de passages punis
incapacité motrice (souris [10]): ne provoque pas l'incapacité motrice majeure
durée de l'effet (souris [11]; 32 mg/kg i.p.): 4 h
durée de l'effet (souris [11]; 128 mg/kg i.p.): 4 à 24 h
durée de l'effet (souris [11]; 512 mg/kg i.p.): > 24 h
hypermotilité (souris [11]; 512 mg/kg i.p. (highest dose), given 30 min before actimeter): l'hypermotilité est moins importante qu'à 128 mg/kg
activité motrice spontanée (souris [11]; 8, 32, 128 et 512 mg/kg i.p., given 30 min before actimeter): augmente modérément l'activité motrice spontanée
activité motrice spontanée (souris [11]; 128 et 512 mg/kg i.p., given 2 h before actimeter): cette augmentation est plus nette
motilité spontanée (souris [11]; 128 et 512 mg/kg i.p., given 4 h before actimeter): augmente la motilité spontanée
activité motrice spontanée (souris [11]; from 8 mg/kg i.p., given 2 h before actimeter): augmente l'activité motrice spontanée
minimal effective dose (souris [11]; ip, mouse, i.p., overall conclusion, read-out: doses qui augmentent l'activité motrice spontanée): ≥ 32 mg/kg
motilité spontanée (souris [11]; only 512 mg/kg i.p., given 24 h before actimeter): augmente modérément la motilité spontanée
nombre de combats (souris [12]; 512 mg/kg i.p. (highest dose used), 30 min before, fights in 10 min): diminue nettement le nombre de combats
agressivité intergroupe des souris (souris [12]; 128 et 512 mg/kg, comparison section): diminution
activité motrice chez la souris habituée à son enceinte (souris [13]): reprise nette de l'activité motrice
récupération motrice (souris [14]): amélioration de la récupération motrice
délai d'apparition des convulsions consécutives à une anoxie asphyxique (souris [15]): ne modifie pratiquement pas
durée du sommeil barbiturique (souris [16]): diminue encore le sommeil; also recorded: diminue la durée du sommeil barbiturique
durée de l'immobilité (souris [17]): diminue la durée de l'immobilité
résultats comme antidépresseur stimulant chez l'homme (homme): bons résultats comme antidépresseur stimulant
